Assay results taken from patent publication US6365178B1, “Method of making pressure sensitive adhesive matrix patches for transdermal drug delivery using hydrophilic salts of drugs and hydrophobic pressure sensitive adhesive dispersions” (priority 1996, dated 2002).
Structures can show the parent of a compound that is named as a salt.

What was measured:
[1] = Visual/microscopic observation of matrix films for drug crystals after preparation and on storage (physical stability); format: physicochemical; conditions: for Drug crystals in dried films: organic solvent-based adhesives MA-24, DUROTAK 2979
Protocol: As used herein, “physical stability” of a drug in a matrix patch includes the lack of recrystallization of the drug in the dried adhesive layer of the patch.
Pressure sensitive adhesive matrix systems described herein were prepared as follows. First, the solids content of a water-based or solvent-based adhesive in liquid form was determined by placing a known weight of liquid in a weighed aluminum dish and evaporating the solvents overnight in a 70° C. convection oven. The content of solid adhesive in the liquid was calculated by dividing the adhesive solid weight after drying by the initial total liquid weight. In some cases, the polyisobutylene (PIB) adhesives were prepared from polyisobutylene solids. The solid PIB was first dissolved in heptane to achieve a final solid content of about 30% by weight, and then the exact solid content was determined as described above. Next, a weighed quantity of adhesive liquid was added to a glass bottle, and the solid adhesive weight was calculated from the known solid fraction of the given adhesive liquid. The drug substance (hydrophilic salt or free drug form) was weighed and added to the adhesive solution in a quantity necessary to achieve a selected dry matrix film composition. The liquid containing the adhesive polymer drug substance was then mixed overnight. […] After mixing, approximately 8 ml of the solution was dispensed on a silanized polyester release liner and film cast using a casting knife with a gap size appropriate to achieve a final dried thickness of approximately 0.05-0.1 mm. The cast was dried in a 70° C. convection oven for 15-30 minutes to yield a dried matrix onto which an 0.08 mm thick polyethylene backing film was laminated. These matrix systems were then used to conduct in vitro skin flux experiments as described below. […]
The systems manufactured with the salt and the water-based adhesive dispersions were stored at room temperature and examined using optical microscopy at 100× magnification for the presence of drug crystals.

[2] = Dissolution of drug substance in liquid adhesive or solvent during matrix preparation; format: physicochemical; conditions: for Dissolution in organic solvent-based adhesives / Dissolution in water-based adhesive dispersions: Example 1, 5% (w/w) in dried film; for Dissolution in organic solvent-based adhesives: MA-24, DUROTAK 2979; for Dissolution in water-based adhesive dispersions: PIB-500, NACOR 72-9965
Protocol: Pressure sensitive adhesive matrix systems described herein were prepared as follows. First, the solids content of a water-based or solvent-based adhesive in liquid form was determined by placing a known weight of liquid in a weighed aluminum dish and evaporating the solvents overnight in a 70° C. convection oven. The content of solid adhesive in the liquid was calculated by dividing the adhesive solid weight after drying by the initial total liquid weight. In some cases, the polyisobutylene (PIB) adhesives were prepared from polyisobutylene solids. […] Next, a weighed quantity of adhesive liquid was added to a glass bottle, and the solid adhesive weight was calculated from the known solid fraction of the given adhesive liquid. The drug substance (hydrophilic salt or free drug form) was weighed and added to the adhesive solution in a quantity necessary to achieve a selected dry matrix film composition. The liquid containing the adhesive polymer drug substance was then mixed overnight. […] The cast was dried in a 70° C. convection oven for 15-30 minutes to yield a dried matrix onto which an 0.08 mm thick polyethylene backing film was laminated. These matrix systems were then used to conduct in vitro skin flux experiments as described below.

[3] = In vitro skin flux, modified Franz non-jacketed diffusion cells; format: in vitro ADME, human; conditions: Example 6, DURO-TAK 2852 patch
Protocol: In vitro skin flux studies were conducted using human cadaver epidermal membrane in modified Franz non-jacketed diffusion cells. […] This method involves the exposure of the fullthickness skin to water at 60° C. for 60 seconds. After this period, the epidermal membrane was gently peeled from the dermis and stored in aluminum foil at −5 ° C. Prior to skin permeation experiments, the silanized release liner was removed from the adhesive matrix system, and the adhesive was affixed to the stratum corneum side of the thawed epidermal membrane, which was then cut to an appropriate size and placed between the two halves of the diffusion cell with the stratum corneum facing the donor compartment.
The receiver compartment was filled with water or an aqueous buffer appropriate to maintain sink conditions for the drug. All receiver media included 0.02% (w/w) sodium azide to inhibit bacterial growth. The diffusion cell was placed in a temperature controlled circulating water bath calibrated to maintain the surface temperature of the skin at 32° C. The receiver compartment was constantly stirred by a magnetic stir bar in the receiver compartment agitated by a magnetic stirring module placed under the water bath. At predetermined sampling intervals, the entire contents of the receiver compartment were collected for drug quantitation, and the receiver compartment was filled with fresh receiver solution, taking care to eliminate any air bubbles at the skin/solution interface.
The cumulative amount of drug permeated per unit area at any time t (Qt, μg/cm^2) was determined according to the following equation: [formula]
where Ct (μg/cm^3) is the concentration of the receiver compartment at sample time t (hours), V is the volume of the receiver compartment of the diffusion cell (6.3 cm^3), and A is the diffusional area of the cell (0.64 cm^2).

[4] = 5% (w/w) drug in Lord PIB-500 (water-based PIB) matrix, room temperature, microscopic
[5] = Example 2, NACOR 72-9965, 1% or 2% (w/w)
[6] = Example 2, TSR and DURO-TAK 2516, 1% or 2% (w/w)
[7] = Example 7, TSR, equivalent to 1% or 2% (w/w) diclofenac sodium
[8] = Example 5, NACOR 72-9965, 1% (w/w)
[9] = Example 5, TSR, equivalent to 1% (w/w) tromethamine salt
[10] = Example 8, Nacor 72-9965 with 5.0% Kollidon 90F, 12%

Compound: CC(C)(C)NCC(O)c1ccc(O)c(CO)c1 (stereo not drawn) [Albuterol Free Base, albuterol]
- Observations: drug crystals ([1]; 10% (w/w) in TSR (organic solvent-based acrylic), 59 weeks of storage at 40° C./75% RH, microscopic): Crystals were observed

Compound: O=C1CC2(CCCC2)CC(=O)N1CCCCN1CCN(c2ncccn2)CC1 [Buspirone Free Base, buspirone]
- Dissolution in organic solvent-based adhesives [2]: dissolved readily
- Dissolution in water-based adhesive dispersions [2]: water insoluble
- Observations: crystals form within [1, 4]: Crystals form within 3 days
- Observations: crystals form within ([1]; 5% (w/w) drug in MA-24 (organic solvent-based PIB) matrix, room temperature, microscopic): Crystals form within 11 days
- Drug crystals in dried films ([1]; Example 1, 5% (w/w)): visibly homogeneous and free from drug crystals
- Recrystallization of buspirone in laminate ([1]; PIB adhesive (MA-24)/buspirone free base/isocetyl alcohol 86/1.5/12.5% (w/w), room temperature and 40° C./70%RH for 3 weeks, microscopic): No recrystallization of buspirone occurred

Compound: O=C1CC2(CCCC2)CC(=O)N1CCCCN1CCN(c2ncccn2)CC1 [Buspirone HCl, buspirone hydrochloride]
- Dissolution in organic solvent-based adhesives ([2]; hydrochloride): did not dissolve
- Dissolution in water-based adhesive dispersions ([2]; hydrochloride): dissolved readily
- Dissolution in water-based adhesive dispersion [2, 5]: dissolved completely
- Dissolution in organic solvents of solvent-based adhesives [2, 6]: did not dissolve completely
- Dissolution in acetone ([2]; Example 3, 0.70 g in 9.2 g acetone): did not completely dissolve
- Dissolution in acetone/isocetyl alcohol mixture ([2]; Example 3, 0.70 g, 9.2 g acetone, 6.1 g isocetyl alcohol): did not completely dissolve
- Dissolution in acetone/isocetyl alcohol/PIB adhesive mixture ([2]; Example 3, blended with MA-24 organic solvent-based PIB adhesive): did not completely dissolve
- Results: dissolution in solvent and in solvent/isocetyl alcohol/PIB adhesive mixture ([2]; Table 6, Acetone 12.0 g, 0.7 g drug): Buspirone hydrochloride (0.7 g) did not dissolve in
- Results: effect of addition of solvent solution PIB adhesive ([2]; Table 6, Chloroform): resulted in precipitation of buspirone, and the resulting
- Results: dissolution in solvent and solvent/isocetyl alcohol mixture ([2]; Table 6, Chloroform 12.0 g, 0.7 g drug): Buspirone hydrochloride (0.7 g) dissolved in chloroform
- Results: dissolution in solvent and in solvent/isocetyl alcohol/PIB adhesive mixture ([2]; Table 6, Ethyl acetate 12.0 g, 0.7 g drug): Buspirone hydrochloride (0.7 g) did not dissolve in
- Results: behaviour of solvent/isocetyl alcohol/PIB adhesive mixture ([2]; Table 6, Methanol): phase separated
- Results: dissolution in solvent ([2]; Table 6, Methanol 12.0 g, 0.7 g drug): Buspirone hydrochloride (0.7 g) dissolved in methanol
- Results: dissolution in solvent and in solvent/isocetyl alcohol/PIB adhesive mixture ([2]; Table 6, Toluene 12.0 g, 0.7 g drug): Buspirone hydrochloride (0.7 g) did not dissolve in
- Results: behaviour of solvent/isocetyl alcohol/adhesive solution ([2]; Table 6, Water): phase separated. The resulting cast contained distinct
- Results: dissolution in solvent ([2]; Table 6, Water 1.5 g, 0.7 g drug): Buspirone hydrochloride (0.7 g) dissolved in water
- Observations: no crystals observed after [1, 4]: No crystals observed after 7 weeks
- Observations: drug crystals ([1]; 5% (w/w) drug in MA-24 (organic solvent-based PIB) matrix, immediately after preparation): crystals present
- Drug crystals in dried films ([1]; Example 1, 5% (w/w), hydrochloride): filled with drug crystals
- Drug crystals in dried film ([1]; Example 1, water-based adhesive dispersions PIB-500, NACOR 72-9965, 5% (w/w)): no crystals were found
- Drug crystals in dried adhesive matrix [1, 5]: visibly free of drug crystals
- Drug crystals in final dried casts [1, 6]: contained visible solid drug crystals
- Drug crystals in laminate ([1]; PIB adhesive (MA-24)/buspirone hydrochloride/isocetyl alcohol 86/1.5/12.5% (w/w), naked eye and microscopic): filled with buspirone crystals
- Results: buspirone crystals in resulting cast ([1]; Table 6, Chloroform): cast contained extensive buspirone crystals.
- Results: buspirone crystals in resulting cast ([1]; Table 6, Ethyl acetate): resulting cast contained extensive buspirone crystals.
- Results: casting of mixture ([1]; Table 6, Methanol, adhesive formed a gel-like ball): impossible to cast
- Results: buspirone crystals in resulting cast ([1]; Table 6, Toluene): contained extensive buspirone crystals.
- Results: buspirone crystallization in resulting cast ([1]; Table 6, Water, buspirone only in water-rich phase): extensively within 24 hours after casting.

Compound: CC(=O)CC(c1ccccc1)c1c(O)c2ccccc2oc1=O (stereo not drawn) [Warfarin free drug, warfarin]
- Dissolution in organic solvents ([2]; Example 8, TSR, 12% (w/w)): dissolved readily
- Drug crystals in dry film ([1]; Example 8, TSR, 12% (w/w), visible and microscopic): free from drug crystals

Compound: Clc1cccc(Cl)c1N=C1NCCN1 [clonidine HCl]
- Drug crystals in dried matrix ([1]; Example 10, water-based PIB 500/BUTYL 100 (Lord), 2% (w/w)): visibly free of drug crystals

Compound: Clc1cccc(Cl)c1N=C1NCCN1 [clonidine free base, clonidine]
- Dissolution in organic solvent solution ([2]; Example 10, VISTANEX MM L-100/LM-MH PIB blend in organic solvents, equivalent to 2% (w/w) HCl salt): dissolved readily
- Drug crystals in dry matrix film ([1]; Example 10, VISTANEX MM L-100/LM-MH PIB blend, equivalent to 2% (w/w) HCl salt): free from drug crystals

Compound: O=C(O)Cc1ccccc1Nc1c(Cl)cccc1Cl [diclofenac free acid, diclofenac]
- Dissolution in organic solvent system [2, 7]: completely dissolved
- Drug crystals in dried matrix [1, 7]: visually free of drug crystals

Compound: O=C(O)Cc1ccccc1Nc1c(Cl)cccc1Cl [diclofenac sodium]
- Dissolution in organic solvent system [2, 7]: not sufficiently soluble
- Drug crystals in dried matrix [1, 7]: contained crystallized drug
- Drug crystals in dried matrices ([1]; Example 7, water-based NACOR 72-9965 and ROBOND PS20, 1% or 2% (w/w)): physically stable and visually free of drug crystals

Compound: O=C(c1ccccc1)c1ccc2n1CCC2C(=O)O (stereo not drawn) [ketorolac tromethamine]
- Dissolution in water/emulsion system [2, 8]: dissolved completely
- Dissolution in organic solvent system [2, 9]: did not completely dissolve
- Dissolution in enhancer-acrylic adhesive solution ([2]; Example 6, DURO-TAK 2852 with propylene glycol/isopropyl myristate, 10% ketorolac on free acid basis): does not dissolve
- Average cumulative amount of ketorolac released after 24 hours ([3]; 10% ketorolac on free acid basis, 8% enhancer (propylene glycol/isopropyl myristate)): 171.6±49.0 μg/cm^2
- In vitro skin flux of ketorolac ([3]; 10% ketorolac on free acid basis, 8% enhancer (propylene glycol/isopropyl myristate), Mean±SD, n=2/10 skins/diffusion cells): 7.5±2.2 μg/cm^2/h
- Ketorolac flux as % of the flux observed with the system prepared with the free acid ([3]; 14.9% ketorolac tromethamine): 30%
- Drug crystals in dried matrix [1, 8]: free of drug crystals
- Drug crystals in dried matrix [1, 9]: contained crystallized drug
- Drug crystals in adhesive matrix/laminate ([1]; Example 6, DURO-TAK 2852 with propylene glycol/isopropyl myristate, 10% ketorolac on free acid basis, visual and microscopic): visibly cloudy and extensive crystals were visible

Compound: CCN(CC)CC(=O)Nc1c(C)cccc1C [lidocaine HCl]
- Drug crystals in dried matrix ([1]; Example 9, DURO-TAK 2516, equivalent to 1% (w/w) HCl salt, HCl): contains visible solid drug crystals
- Drug crystals in dried matrix ([1]; Example 9, NACOR 72-9965, 1% (w/w)): physically stable and free of drug crystals

Compound: CCN(CC)CC(=O)Nc1c(C)cccc1C [lidocaine free base, lidocaine]
- Drug crystals in dried matrix ([1]; Example 9, DURO-TAK 2516, equivalent to 1% (w/w) HCl salt): visibly free of drug crystals

Compound: CC(=O)CC(c1ccccc1)c1c(O)c2ccccc2oc1=O (stereo not drawn) [sodium warfarin, warfarin sodium]
- Dissolution in water-based dispersion [2, 10]: dissolved readily
- Drug crystals in dry matrix [1, 10]: free from visible and microscopic drug crystals

Compound: albuterol sulfate
- Observations: drug crystals ([1]; 10% (w/w) in NACOR 9965 (water-based acrylic) with 5% KOLLIDON 90F, 59 weeks of storage at 40° C./75% RH, microscopic): No crystals were observed
